The target of one assay is T1, FGFR3 (Homo sapiens, UniProt P22607).
T1 construct: purchased Eurofins DiscoverX KINOMEscan
The assay is described as follows: KINOMEscan 1 μM, FGFR3. The class given is binding. The conditions noted are these: 1000 nM; Entrez FGFR3; read-out: Percent Control. An excerpt: (§1) Supplement cells-12-00287-s001.zip/File S2. KinomeScan data for the CAMKK2 probe and negative control.xlsx, sheet "SGC-CAMKK2-1" | column: Percent Control

A further assay deals with T2, MST3 (Homo sapiens, UniProt Q9Y6E0).
T2 construct: purchased Eurofins DiscoverX KINOMEscan
In words: KINOMEscan 1 μM, MST3. Format: binding. The conditions noted are these: 1000 nM; Entrez STK24; read-out: Percent Control.
Description: as §1

Assay [1] deals with T3, RPS6KA4(Kin.Dom.2-C-terminal) (Homo sapiens, UniProt O75676).
T3 construct: RPS6KA4(Kin.Dom.2-C-terminal); purchased Eurofins DiscoverX KINOMEscan
In words: DiscoverX KINOMEscan binding assay at 1 μM, RPS6KA4(Kin.Dom.2-C-terminal). The settings on record: Compound Concentration 1000 nM, read-out: Percent Control.
Description: as §1

The target of the next assay is T4, MAK (Homo sapiens, UniProt P20794).
T4 construct: purchased Eurofins DiscoverX KINOMEscan
The assay is described as follows: KINOMEscan 1 μM, MAK. The conditions noted are these: 1000 nM; Entrez MAK; read-out: Percent Control. Format: binding.
Description: as §1

For another assay, the target named is T5, PIP5K2B (Homo sapiens, UniProt P78356).
T5 construct: purchased Eurofins DiscoverX KINOMEscan
In words: DiscoverX KINOMEscan binding assay at 1 μM, PIP5K2B. The conditions noted are these: PIP5K2B (PIP4K2B); Compound Concentration 1000 nM; read-out: Percent Control.
Description: as §1

A further assay deals with T6, AKT1 (Homo sapiens, UniProt P31749).
T6 construct: purchased Eurofins DiscoverX KINOMEscan
In words: KINOMEscan 1 μM, AKT1. The class given is binding. The settings on record: 1000 nM; Entrez AKT1; read-out: Percent Control.
Description: as §1

For another assay, the target named is T7, MST4 (Homo sapiens, UniProt Q9P289).
T7 construct: purchased Eurofins DiscoverX KINOMEscan
In words: KINOMEscan 1 μM, MST4. The class given is binding. The conditions noted are these: 1000 nM; Entrez MST4; read-out: Percent Control.
Description: as §1

The next assay deals with T8, CHEK1 (Homo sapiens, UniProt O14757).
T8 construct: purchased Eurofins DiscoverX KINOMEscan
In words: KINOMEscan 1 μM, CHEK1. The class given is binding. The conditions noted are these: 1000 nM; Entrez CHEK1; read-out: Percent Control.
Description: as §1

The target of a further assay is T9, DLK (Homo sapiens, UniProt Q12852).
T9 construct: purchased Eurofins DiscoverX KINOMEscan
In words: KINOMEscan 1 μM, DLK. The class given is binding. The conditions noted are these: 1000 nM; Entrez MAP3K12; read-out: Percent Control.
Description: as §1

The next assay has as its target T10, PIK3CA(M1043I) (Homo sapiens, UniProt P42336, M1043I).
T10 construct: purchased Eurofins DiscoverX KINOMEscan
In words: DiscoverX KINOMEscan binding assay at 1 μM, PIK3CA(M1043I). The settings on record: Compound Concentration 1000 nM, read-out: Percent Control.
Description: as §1

Another assay concerns the target T11, EPHA7 (Homo sapiens, UniProt Q15375).
T11 construct: purchased Eurofins DiscoverX KINOMEscan
The assay is described as follows: KINOMEscan 1 μM, EPHA7. Format: binding. The conditions noted are these: 1000 nM; Entrez EPHA7; read-out: Percent Control.
Description: as §1

For a further assay, the target named is T12, PIK3CD (Homo sapiens, UniProt O00329).
T12 construct: purchased Eurofins DiscoverX KINOMEscan
The assay is described as follows: DiscoverX KINOMEscan binding assay at 1 μM, PIK3CD. The settings on record: Compound Concentration 1000 nM, read-out: Percent Control.
Description: as §1

The next assay concerns the target T13, LIMK2 (Homo sapiens, UniProt P53671).
T13 construct: purchased Eurofins DiscoverX KINOMEscan
In words: KINOMEscan 1 μM, LIMK2. Format: binding. The conditions noted are these: 1000 nM; Entrez LIMK2; read-out: Percent Control.
Description: as §1

The next assay addresses T14, WNK3 (Homo sapiens, UniProt Q9BYP7).
T14 construct: purchased Eurofins DiscoverX KINOMEscan
In words: KINOMEscan 1 μM, WNK3. Format: binding. The conditions noted are these: 1000 nM; Entrez WNK3; read-out: Percent Control.
Description: as §1

A further assay addresses T15, NDR1 (Homo sapiens, UniProt Q15208).
T15 construct: purchased Eurofins DiscoverX KINOMEscan
In words: KINOMEscan 1 μM, NDR1. The class given is binding. The settings on record: 1000 nM; Entrez STK38; read-out: Percent Control.
Description: as §1

The target in another assay is T16, GRK7 (Homo sapiens, UniProt Q8WTQ7).
T16 construct: purchased Eurofins DiscoverX KINOMEscan
In words: KINOMEscan 1 μM, GRK7. The class given is binding. The conditions noted are these: 1000 nM; Entrez GRK7; read-out: Percent Control.
Description: as §1

A further assay addresses T17, EPHA2 (Homo sapiens, UniProt P29317).
T17 construct: purchased Eurofins DiscoverX KINOMEscan
The assay is described as follows: KINOMEscan 1 μM, EPHA2. The class given is binding. The settings on record: 1000 nM; Entrez EPHA2; read-out: Percent Control.
Description: as §1

In another assay the target is T18, PRKR (Homo sapiens, UniProt P19525).
T18 construct: purchased Eurofins DiscoverX KINOMEscan
In words: DiscoverX KINOMEscan binding assay at 1 μM, PRKR. The conditions noted are these: PRKR (EIF2AK2); Compound Concentration 1000 nM; read-out: Percent Control.
Description: as §1

In a further assay the target is T19, MLK1 (Homo sapiens, UniProt P80192).
T19 construct: purchased Eurofins DiscoverX KINOMEscan
In words: KINOMEscan 1 μM, MLK1. The class given is binding. The settings on record: 1000 nM; Entrez MAP3K9; read-out: Percent Control.
Description: as §1

The next assay concerns the target T20, MAP4K5 (Homo sapiens, UniProt Q9Y4K4).
T20 construct: purchased Eurofins DiscoverX KINOMEscan
The assay is described as follows: KINOMEscan at 1 μM, MAP4K5. The class given is binding. The settings on record: 1000 nM, read-out: Percent Control. The text has this:
(§2) Supplement cells-12-00287-s001.zip/File S2. KinomeScan data for the CAMKK2 probe and negative control.xlsx, sheet "SGC-CAMKK2-1N" | column: Percent Control

Another assay deals with T21, PKAC-beta (Homo sapiens, UniProt P22694).
T21 construct: purchased Eurofins DiscoverX KINOMEscan
In words: KINOMEscan binding assay at 1 μM, PKAC-beta. The conditions noted are these: Compound Concentration 1000 nM; read-out: Percent Control.
Description: as §2

Another assay deals with T22, TRPM6 (Homo sapiens, UniProt Q9BX84).
T22 construct: purchased Eurofins DiscoverX KINOMEscan
In words: KINOMEscan at 1 μM, TRPM6. Format: binding. The settings on record: 1000 nM, read-out: Percent Control.
Description: as §2

The target of the next assay is T23, FGFR2 (Homo sapiens, UniProt P21802).
T23 construct: purchased Eurofins DiscoverX KINOMEscan
In words: KINOMEscan at 1 μM, FGFR2. Format: binding. The conditions noted are these: 1000 nM, read-out: Percent Control.
Description: as §2

For a further assay, the target named is T24, TLK2 (Homo sapiens, UniProt Q86UE8).
T24 construct: purchased Eurofins DiscoverX KINOMEscan
In words: KINOMEscan at 1 μM, TLK2. The class given is binding. The settings on record: 1000 nM, read-out: Percent Control.
Description: as §2

The next assay addresses T25, SIK2 (Homo sapiens, UniProt Q9H0K1).
T25 construct: purchased Eurofins DiscoverX KINOMEscan
The assay is described as follows: KINOMEscan at 1 μM, SIK2. The class given is binding. The conditions noted are these: 1000 nM, read-out: Percent Control.
Description: as §2

The next assay addresses T26, BRK (Homo sapiens, UniProt Q13882).
T26 construct: purchased Eurofins DiscoverX KINOMEscan
In words: KINOMEscan at 1 μM, BRK. The conditions noted are these: 1000 nM, read-out: Percent Control. Format: binding.
Description: as §2

Assay [2] addresses T27, RSK3(Kin.Dom.2-C-terminal) (Homo sapiens, UniProt Q15349).
T27 construct: RSK3(Kin.Dom.2-C-terminal); purchased Eurofins DiscoverX KINOMEscan
The assay is described as follows: KINOMEscan at 1 μM, RSK3(Kin.Dom.2-C-terminal). Format: binding. The conditions noted are these: 1000 nM, read-out: Percent Control.
Description: as §2

In another assay the target is T28, MAP4K4 (Homo sapiens, UniProt O95819).
T28 construct: purchased Eurofins DiscoverX KINOMEscan
The assay is described as follows: KINOMEscan at 1 μM, MAP4K4. Format: binding. The settings on record: 1000 nM, read-out: Percent Control.
Description: as §2

In the next assay the target is T29, EPHA3 (Homo sapiens, UniProt P29320).
T29 construct: purchased Eurofins DiscoverX KINOMEscan
In words: KINOMEscan at 1 μM, EPHA3. Format: binding. The conditions noted are these: 1000 nM, read-out: Percent Control.
Description: as §2

The target in the next assay is T30, EIF2AK1 (Homo sapiens, UniProt Q9BQI3).
T30 construct: purchased Eurofins DiscoverX KINOMEscan
The assay is described as follows: KINOMEscan at 1 μM, EIF2AK1. The class given is binding. The conditions noted are these: 1000 nM, read-out: Percent Control.
Description: as §2

For a further assay, the target named is T31, PRKD2 (Homo sapiens, UniProt Q9BZL6).
T31 construct: purchased Eurofins DiscoverX KINOMEscan
The assay is described as follows: KINOMEscan at 1 μM, PRKD2. Format: binding. The settings on record: 1000 nM, read-out: Percent Control.
Description: as §2

In the next assay the target is T32, TAOK1 (Homo sapiens, UniProt Q7L7X3).
T32 construct: purchased Eurofins DiscoverX KINOMEscan
In words: KINOMEscan at 1 μM, TAOK1. Format: binding. The conditions noted are these: 1000 nM, read-out: Percent Control.
Description: as §2

The target of the next assay is T33, MEK4 (Homo sapiens, UniProt P45985).
T33 construct: purchased Eurofins DiscoverX KINOMEscan
The assay is described as follows: KINOMEscan at 1 μM, MEK4. The conditions noted are these: 1000 nM, read-out: Percent Control. The class given is binding.
Description: as §2

We go through two molecules from article PMC9856672, “SGC-CAMKK2-1: A Chemical Probe for CAMKK2” (Cells, 2023).

T4 sequence (P20794 whole entry): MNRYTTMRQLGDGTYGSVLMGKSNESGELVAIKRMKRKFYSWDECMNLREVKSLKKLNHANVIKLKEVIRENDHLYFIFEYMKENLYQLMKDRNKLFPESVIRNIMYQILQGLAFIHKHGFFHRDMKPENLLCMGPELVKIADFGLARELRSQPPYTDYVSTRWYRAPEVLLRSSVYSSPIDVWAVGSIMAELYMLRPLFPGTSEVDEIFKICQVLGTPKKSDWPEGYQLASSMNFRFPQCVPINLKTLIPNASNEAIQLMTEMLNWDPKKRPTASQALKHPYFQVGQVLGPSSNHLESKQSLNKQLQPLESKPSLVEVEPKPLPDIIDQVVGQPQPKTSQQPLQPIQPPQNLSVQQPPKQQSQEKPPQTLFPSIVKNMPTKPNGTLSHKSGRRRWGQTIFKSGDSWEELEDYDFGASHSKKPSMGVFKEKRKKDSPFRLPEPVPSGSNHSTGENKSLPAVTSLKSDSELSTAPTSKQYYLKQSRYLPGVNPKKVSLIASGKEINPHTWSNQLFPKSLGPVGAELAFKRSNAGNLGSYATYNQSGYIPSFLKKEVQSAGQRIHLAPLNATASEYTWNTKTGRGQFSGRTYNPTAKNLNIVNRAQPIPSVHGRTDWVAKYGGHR
T22 sequence (Q9BX84 whole entry): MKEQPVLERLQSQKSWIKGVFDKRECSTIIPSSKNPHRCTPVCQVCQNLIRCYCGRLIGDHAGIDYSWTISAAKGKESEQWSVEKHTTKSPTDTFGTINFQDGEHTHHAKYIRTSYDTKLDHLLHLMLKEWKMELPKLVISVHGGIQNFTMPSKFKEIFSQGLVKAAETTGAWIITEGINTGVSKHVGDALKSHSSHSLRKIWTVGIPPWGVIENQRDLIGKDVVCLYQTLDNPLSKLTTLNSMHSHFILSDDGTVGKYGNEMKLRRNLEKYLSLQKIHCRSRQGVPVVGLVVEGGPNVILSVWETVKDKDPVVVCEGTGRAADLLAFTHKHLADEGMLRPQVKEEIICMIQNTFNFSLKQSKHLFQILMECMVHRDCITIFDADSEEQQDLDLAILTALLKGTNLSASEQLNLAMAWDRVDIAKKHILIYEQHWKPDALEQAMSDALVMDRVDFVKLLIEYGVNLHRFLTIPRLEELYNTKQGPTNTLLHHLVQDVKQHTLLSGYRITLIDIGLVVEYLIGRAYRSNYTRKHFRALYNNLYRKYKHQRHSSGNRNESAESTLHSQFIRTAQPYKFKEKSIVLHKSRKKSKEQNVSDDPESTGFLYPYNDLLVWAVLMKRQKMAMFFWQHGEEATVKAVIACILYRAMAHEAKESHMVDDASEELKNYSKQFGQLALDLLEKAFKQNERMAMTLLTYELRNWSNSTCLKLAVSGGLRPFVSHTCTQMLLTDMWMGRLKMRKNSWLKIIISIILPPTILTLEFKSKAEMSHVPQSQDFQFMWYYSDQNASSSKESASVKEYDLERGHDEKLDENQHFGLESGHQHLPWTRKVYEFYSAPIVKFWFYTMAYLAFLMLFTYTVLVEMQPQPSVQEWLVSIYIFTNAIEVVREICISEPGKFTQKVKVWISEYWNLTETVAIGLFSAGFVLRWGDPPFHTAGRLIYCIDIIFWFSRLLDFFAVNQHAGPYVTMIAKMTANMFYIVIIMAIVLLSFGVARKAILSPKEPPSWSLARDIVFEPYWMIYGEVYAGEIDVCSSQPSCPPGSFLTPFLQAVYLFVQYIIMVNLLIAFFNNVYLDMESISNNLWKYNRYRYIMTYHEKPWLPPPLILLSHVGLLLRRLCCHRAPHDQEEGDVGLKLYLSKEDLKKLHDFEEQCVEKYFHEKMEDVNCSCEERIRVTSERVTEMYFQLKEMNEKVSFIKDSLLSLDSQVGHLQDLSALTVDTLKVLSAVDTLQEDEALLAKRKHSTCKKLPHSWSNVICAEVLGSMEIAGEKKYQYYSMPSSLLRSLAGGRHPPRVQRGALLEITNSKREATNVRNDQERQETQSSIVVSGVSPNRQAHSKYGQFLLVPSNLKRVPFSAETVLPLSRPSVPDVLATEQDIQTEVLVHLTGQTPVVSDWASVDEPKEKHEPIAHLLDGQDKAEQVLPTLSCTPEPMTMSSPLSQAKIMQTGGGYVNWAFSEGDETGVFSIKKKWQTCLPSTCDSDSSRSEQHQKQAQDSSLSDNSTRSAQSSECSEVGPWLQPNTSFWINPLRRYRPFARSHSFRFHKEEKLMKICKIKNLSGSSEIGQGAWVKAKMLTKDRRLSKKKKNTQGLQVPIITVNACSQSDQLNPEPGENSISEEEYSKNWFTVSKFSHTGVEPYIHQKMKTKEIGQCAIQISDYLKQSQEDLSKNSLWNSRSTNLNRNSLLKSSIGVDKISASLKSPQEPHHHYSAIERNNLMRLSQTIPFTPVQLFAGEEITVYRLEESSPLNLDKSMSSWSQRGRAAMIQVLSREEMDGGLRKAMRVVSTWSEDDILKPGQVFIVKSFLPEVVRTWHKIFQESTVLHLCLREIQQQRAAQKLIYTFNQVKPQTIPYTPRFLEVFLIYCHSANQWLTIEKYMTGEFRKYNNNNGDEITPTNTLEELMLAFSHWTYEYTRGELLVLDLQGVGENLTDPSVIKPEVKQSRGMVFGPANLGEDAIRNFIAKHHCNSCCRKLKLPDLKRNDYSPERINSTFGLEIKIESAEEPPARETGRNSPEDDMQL
T28 sequence (O95819 whole entry): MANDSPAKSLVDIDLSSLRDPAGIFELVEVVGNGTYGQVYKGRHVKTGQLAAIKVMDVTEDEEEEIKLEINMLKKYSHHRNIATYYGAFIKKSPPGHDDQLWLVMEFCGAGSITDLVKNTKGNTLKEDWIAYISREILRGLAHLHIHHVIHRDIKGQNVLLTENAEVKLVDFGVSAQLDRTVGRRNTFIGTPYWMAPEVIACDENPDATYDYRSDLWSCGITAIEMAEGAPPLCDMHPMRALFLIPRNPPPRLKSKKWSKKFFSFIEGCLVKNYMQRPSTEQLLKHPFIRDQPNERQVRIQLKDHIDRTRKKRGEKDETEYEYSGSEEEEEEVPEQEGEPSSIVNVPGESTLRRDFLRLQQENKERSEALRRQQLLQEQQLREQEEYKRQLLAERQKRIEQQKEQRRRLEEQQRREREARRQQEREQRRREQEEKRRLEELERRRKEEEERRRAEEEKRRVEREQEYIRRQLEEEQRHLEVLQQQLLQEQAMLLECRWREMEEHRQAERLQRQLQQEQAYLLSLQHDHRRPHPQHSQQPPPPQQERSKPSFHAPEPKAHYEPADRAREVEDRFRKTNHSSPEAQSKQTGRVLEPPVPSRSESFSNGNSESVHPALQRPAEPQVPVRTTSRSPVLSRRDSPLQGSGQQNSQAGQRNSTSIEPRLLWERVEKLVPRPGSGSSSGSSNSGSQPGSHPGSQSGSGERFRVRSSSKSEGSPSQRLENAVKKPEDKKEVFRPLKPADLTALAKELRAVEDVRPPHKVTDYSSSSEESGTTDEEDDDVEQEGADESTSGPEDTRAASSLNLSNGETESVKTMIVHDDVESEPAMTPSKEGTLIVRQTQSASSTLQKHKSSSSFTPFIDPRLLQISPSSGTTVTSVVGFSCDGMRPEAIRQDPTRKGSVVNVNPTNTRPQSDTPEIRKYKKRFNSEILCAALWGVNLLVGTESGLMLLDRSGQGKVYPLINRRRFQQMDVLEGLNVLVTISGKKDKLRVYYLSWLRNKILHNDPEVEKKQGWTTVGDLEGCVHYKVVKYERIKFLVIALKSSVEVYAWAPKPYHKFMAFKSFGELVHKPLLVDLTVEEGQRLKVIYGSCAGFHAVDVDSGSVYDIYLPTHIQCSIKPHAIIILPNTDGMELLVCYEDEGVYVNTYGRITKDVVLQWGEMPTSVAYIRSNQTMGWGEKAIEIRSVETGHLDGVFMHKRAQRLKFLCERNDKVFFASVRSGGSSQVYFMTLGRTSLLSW
T26 sequence (Q13882 whole entry): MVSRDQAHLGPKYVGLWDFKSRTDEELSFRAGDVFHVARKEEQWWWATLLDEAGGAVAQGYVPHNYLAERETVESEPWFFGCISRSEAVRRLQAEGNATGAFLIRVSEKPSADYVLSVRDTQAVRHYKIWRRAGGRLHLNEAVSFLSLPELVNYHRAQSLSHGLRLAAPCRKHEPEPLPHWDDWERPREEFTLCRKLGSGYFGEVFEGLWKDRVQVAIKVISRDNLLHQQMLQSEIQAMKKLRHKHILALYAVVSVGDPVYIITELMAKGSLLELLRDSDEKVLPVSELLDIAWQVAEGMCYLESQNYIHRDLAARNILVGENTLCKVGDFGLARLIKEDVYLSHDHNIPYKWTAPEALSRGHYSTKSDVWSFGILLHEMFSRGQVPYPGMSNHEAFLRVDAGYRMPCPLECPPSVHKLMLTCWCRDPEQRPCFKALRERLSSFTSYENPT
T5 sequence (P78356 whole entry): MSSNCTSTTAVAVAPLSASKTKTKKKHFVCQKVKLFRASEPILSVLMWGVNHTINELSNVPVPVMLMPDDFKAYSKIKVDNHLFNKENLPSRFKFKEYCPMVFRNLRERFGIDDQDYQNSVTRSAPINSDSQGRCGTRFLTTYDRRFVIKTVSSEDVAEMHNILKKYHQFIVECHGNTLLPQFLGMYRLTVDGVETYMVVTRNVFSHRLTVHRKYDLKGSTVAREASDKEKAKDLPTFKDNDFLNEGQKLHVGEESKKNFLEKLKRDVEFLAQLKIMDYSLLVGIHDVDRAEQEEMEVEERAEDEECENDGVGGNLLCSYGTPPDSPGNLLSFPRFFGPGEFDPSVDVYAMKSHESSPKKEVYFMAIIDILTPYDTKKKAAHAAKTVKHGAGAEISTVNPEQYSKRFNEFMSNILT
T27 sequence (Q15349 389-733 limits assumed): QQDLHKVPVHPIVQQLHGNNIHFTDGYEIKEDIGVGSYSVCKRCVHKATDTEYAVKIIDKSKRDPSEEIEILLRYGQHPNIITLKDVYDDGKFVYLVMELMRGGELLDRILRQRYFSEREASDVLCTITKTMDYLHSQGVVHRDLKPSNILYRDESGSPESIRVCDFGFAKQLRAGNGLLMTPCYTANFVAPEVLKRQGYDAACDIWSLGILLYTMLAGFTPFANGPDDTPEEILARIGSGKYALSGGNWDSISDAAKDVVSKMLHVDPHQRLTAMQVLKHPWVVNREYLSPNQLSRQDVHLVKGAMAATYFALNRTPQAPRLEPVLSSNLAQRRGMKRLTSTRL

For the molecule `Cc1cccc(-c2cnc3occ(-c4ccc(C(=O)O)c(C5CCCC5)c4)c3c2)c1` [SGC-CAMKK2-1 (YL-36)], the remaining binding at 1 µM on FGFR3 turned out to be 95%; at MST3, 100%; in assay [1] it was 100%; on MAK, 78%; at PIP5K2B, 100%; on AKT1 it was 100%. The remaining binding at 1 µM on MST4 came to 100%; on CHEK1, 93%; on DLK, 100%; at PIK3CA(M1043I), 100%; on EPHA7, 100%; on PIK3CD, 100%. In addition, the remaining binding at 1 µM at LIMK2 is 86%; at WNK3 it was 97%; on NDR1, 100%; on GRK7 it was 94%; on EPHA2 it was 100%; at PRKR, 100%. Further, the remaining binding at 1 µM on MLK1 was found to be 100%.

As to `O=C(O)c1ccc(-c2coc3ncc(-c4ccccc4)cc23)cc1Cl` [SGC-CAMKK2-1N (UNC-YL-83)], the remaining binding at 1 µM at MAP4K5 was found to be 89%; at PKAC-beta, 100%; on TRPM6, 53%; at FGFR2, 84%; on TLK2, 77%; on SIK2, 93%. Also, the remaining binding at 1 µM was 96% on BRK; 91% in assay [2]; 94% on MAP4K4; 92% at EPHA3; 42% on EIF2AK1; 91% at PRKD2. The remaining binding at 1 µM at TAOK1 amounted to 77%; on MEK4 it was 81%.
